The record followed here is patent US20230103791A1 (GLAXOSMITHKLINE INTELLECTUAL PROPERTY DEVELOPMENT LIMITED, priority 2019, published 2023).

One assay deals with T1, human Nav1.8 (Homo sapiens, UniProt Q9Y5Y9).
T1 construct: expressed in transfected cells; host or cells: HEK293 (HEK293-Nav1.8)
T1 sequence (Q9Y5Y9 whole entry): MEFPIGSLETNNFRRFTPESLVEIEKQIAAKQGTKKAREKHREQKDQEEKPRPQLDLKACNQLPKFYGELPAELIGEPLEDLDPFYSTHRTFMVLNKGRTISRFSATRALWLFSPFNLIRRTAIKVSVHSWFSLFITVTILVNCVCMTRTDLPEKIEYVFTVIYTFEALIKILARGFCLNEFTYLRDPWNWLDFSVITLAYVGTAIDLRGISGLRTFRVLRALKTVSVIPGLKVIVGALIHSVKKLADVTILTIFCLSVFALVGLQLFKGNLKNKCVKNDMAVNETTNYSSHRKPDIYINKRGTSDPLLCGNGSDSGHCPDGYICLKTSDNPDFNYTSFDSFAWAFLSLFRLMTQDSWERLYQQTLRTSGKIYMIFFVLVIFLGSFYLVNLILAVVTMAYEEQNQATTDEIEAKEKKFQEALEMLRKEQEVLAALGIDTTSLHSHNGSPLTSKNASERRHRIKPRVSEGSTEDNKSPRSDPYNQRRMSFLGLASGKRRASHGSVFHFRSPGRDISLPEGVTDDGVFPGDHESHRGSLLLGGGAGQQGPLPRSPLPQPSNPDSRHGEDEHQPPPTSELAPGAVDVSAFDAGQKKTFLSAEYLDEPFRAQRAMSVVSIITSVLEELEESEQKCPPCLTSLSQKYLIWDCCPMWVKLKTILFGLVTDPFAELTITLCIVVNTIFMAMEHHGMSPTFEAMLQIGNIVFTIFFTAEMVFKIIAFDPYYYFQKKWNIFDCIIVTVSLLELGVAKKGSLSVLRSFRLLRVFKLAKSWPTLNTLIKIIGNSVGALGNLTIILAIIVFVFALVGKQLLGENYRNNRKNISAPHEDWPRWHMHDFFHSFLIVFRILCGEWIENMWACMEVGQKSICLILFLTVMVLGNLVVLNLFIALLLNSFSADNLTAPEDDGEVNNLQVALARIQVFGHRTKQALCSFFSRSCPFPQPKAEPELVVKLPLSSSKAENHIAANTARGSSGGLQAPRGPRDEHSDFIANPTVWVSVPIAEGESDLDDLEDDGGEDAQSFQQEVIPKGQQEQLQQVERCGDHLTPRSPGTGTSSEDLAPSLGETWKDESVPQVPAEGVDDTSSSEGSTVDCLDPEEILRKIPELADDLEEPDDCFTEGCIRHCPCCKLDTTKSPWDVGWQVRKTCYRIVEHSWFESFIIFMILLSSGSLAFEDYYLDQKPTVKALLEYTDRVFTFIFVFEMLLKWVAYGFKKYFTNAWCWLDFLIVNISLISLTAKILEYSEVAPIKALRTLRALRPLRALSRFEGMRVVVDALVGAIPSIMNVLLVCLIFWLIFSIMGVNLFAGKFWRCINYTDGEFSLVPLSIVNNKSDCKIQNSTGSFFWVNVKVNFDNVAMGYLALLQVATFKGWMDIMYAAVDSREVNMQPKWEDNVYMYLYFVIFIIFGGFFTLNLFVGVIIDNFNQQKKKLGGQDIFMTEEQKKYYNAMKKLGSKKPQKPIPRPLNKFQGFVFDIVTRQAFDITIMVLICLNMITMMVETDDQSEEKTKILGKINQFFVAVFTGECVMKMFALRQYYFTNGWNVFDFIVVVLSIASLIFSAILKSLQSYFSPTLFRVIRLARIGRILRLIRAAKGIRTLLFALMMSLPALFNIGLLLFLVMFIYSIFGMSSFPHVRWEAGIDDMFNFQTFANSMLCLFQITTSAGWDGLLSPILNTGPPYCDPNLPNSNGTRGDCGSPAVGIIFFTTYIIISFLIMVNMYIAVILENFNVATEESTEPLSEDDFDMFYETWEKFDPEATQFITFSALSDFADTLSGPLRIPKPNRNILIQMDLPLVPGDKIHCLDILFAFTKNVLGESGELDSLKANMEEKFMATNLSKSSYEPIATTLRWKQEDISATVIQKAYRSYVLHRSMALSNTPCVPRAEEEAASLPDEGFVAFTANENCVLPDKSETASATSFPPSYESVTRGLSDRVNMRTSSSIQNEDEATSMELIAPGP
T1 sequence (Q07699 19-218 partner): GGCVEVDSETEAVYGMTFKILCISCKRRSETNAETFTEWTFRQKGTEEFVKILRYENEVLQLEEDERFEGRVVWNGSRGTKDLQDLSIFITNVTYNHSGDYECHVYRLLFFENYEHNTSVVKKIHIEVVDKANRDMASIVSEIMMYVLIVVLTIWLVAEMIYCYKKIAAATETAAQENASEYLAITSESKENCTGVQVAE
In words: Nav1.8 sodium channels assay, QPatch 48 HTX electrophysiology in HEK293-Nav1.8 cells. The settings on record: Table 1; HEK293-Nav1.8, QPatch 48 HTX, half inactivation state voltage protocol (V1/2); single run or average of two or more runs; read-out: Nav1.8 pIC50 (converted). Type of assay: cell-based. The method in brief: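 IC50 came from 6-8 point curves of P2 current amplitude, normalized to baseline and a positive reference, and corrected for run-down using vehicle-only wells. Automated patch clamp used HEK293-Nav1.8 (with Navβ1 and TREK1) at pH 7.4 outside and CsF-based solution inside. An 8 s inactivating step at −46 mV preceded the 0 mV test pulse, repeated at 0.07 Hz.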
Consider `Cc1cc(=O)[nH]cc1N1CN(c2ccc(F)cc2C)c2cc(C(F)(F)F)ccc2C1=O` [drawing 273, 1-(4-fluoro-2-methylphenyl)-3-(4-methyl-6-oxo-1,6-dihydropyridin-3-yl)-7-(trifluoromethyl)-2,3-dihydroquinazolin-4(1H)-one], for which the IC50 is 0.398 µM. Regarding `Cc1cc(F)ccc1N1CN(c2ccc(=O)[nH]c2C)C(=O)c2ccc(OC(F)(F)F)cc21` [drawing 303, 1-(4-fluoro-2-methylphenyl)-3-(2-methyl-6-oxo-1,6-dihydropyridin-3-yl)-7-(trifluoromethoxy)-2,3-dihydroquinazolin-4(1H)-one], the IC50 is 0.00316 µM. Still for that read-out and setting: next, `Cc1ccccc1N1CN(c2ccc(=O)[nH]c2C)C(=O)c2ccccc21` [drawing 295, 3-(2-methyl-6-oxo-1,6-dihydropyridin-3-yl)-1-(o-tolyl)-2,3-dihydroquinazolin-4(1H)-one]: 0.631 µM.

In the case of `Cc1cc(OC(F)(F)F)ccc1N1CN(c2ccc(=O)[nH]c2C)C(=O)c2cc(C(F)(F)F)cnc21` [drawing 274, 1-(2-methyl-4-(trifluoromethoxy)phenyl)-3-(2-methyl-6-oxo-1,6-dihydropyridin-3-yl)-6-(trifluoromethyl)-2,3-dihydropyrido[2,3-d]pyrimidin-4(1H)-one], the IC50 was 0.0251 µM.

The same assay, now with this note: at least one set of experimental runs; read-out: average pIC50 value against Nav1.8 (converted).
Consider `Cc1ncccc1N1CN(c2ccc(=O)[nH]c2C)C(=O)c2ccc(C(F)(F)F)cc21` [Example 46, 3-(2-methyl-6-oxo-1,6-dihydropyridin-3-yl)-1-(2-methylpyridin-3-yl)-7-(trifluoromethyl)-2,3-dihydroquinazolin-4(1H)-one], for which the IC50 was 0.794 to 7.94 µM. Still for that read-out and setting: next, `COc1ccc(N2CN(c3ccc(F)cc3C)c3cc(C(F)(F)F)ccc3C2=O)cn1` [Example 10, 1-(4-fluoro-2-methylphenyl)-3-(6-methoxypyridin-3-yl)-7-(trifluoromethyl)-2,3-dihydroquinazolin-4(1H)-one]: 0.794 to 7.94 µM. Same read-out and setting: next, `Cc1[nH]c(=O)ccc1N1CN(c2ccc(F)cc2C(C)C)c2ncc(Cl)cc2C1=O` [Example 213, 6-chloro-1-(4-fluoro-2-isopropylphenyl)-3-(2-methyl-6-oxo-1,6-dihydropyridin-3-yl)-2,3-dihydropyrido[2,3-d]pyrimidin-4(1H)-one]: 0.126 to 0.631 µM; `Cc1cc(F)ccc1N1CN(c2c(C)nc(=O)[nH]c2C)C(=O)c2ccc(C(F)(F)F)cc21` [Example 94, 3-(4,6-dimethyl-2-oxo-1,2-dihydropyrimidin-5-yl)-1-(4-fluoro-2-methylphenyl)-7-(trifluoromethyl)-2,3-dihydroquinazolin-4(1H)-one]: 0.794 to 7.94 µM. Still for that read-out and setting: next, `COc1cc(F)ccc1N1CN(c2ccc(=O)[nH]c2C)C(=O)c2cc(F)c(F)cc21` [Example 132, 6,7-difluoro-1-(4-fluoro-2-methoxyphenyl)-3-(2-methyl-6-oxo-1,6-dihydropyridin-3-yl)-2,3-dihydroquinazolin-4(1H)-one]: 0.126 to 0.631 µM. On to `Cc1cc(F)ccc1N1CN(c2ccc(=O)[nH]c2C)C(=O)c2cc(C(F)(F)F)cnc21` [Example 299, 1-(4-fluoro-2-methylphenyl)-3-(2-methyl-6-oxo-1,6-dihydropyridin-3-yl)-6-(trifluoromethyl)-2,3-dihydropyrido[2,3-d]pyrimidin-4(1H)-one], for which the IC50 was 0.126 to 0.631 µM. As to `Cc1cc(F)ccc1N1CN(c2ccc(=O)[nH]c2C)C(=O)c2c1cc(F)c(Cl)c2F` [Example 193, 6-chloro-5,7-difluoro-1-(4-fluoro-2-methylphenyl)-3-(2-methyl-6-oxo-1,6-dihydropyridin-3-yl)-2,3-dihydroquinazolin-4(1H)-one], the IC50 is at most 0.1 µM.

With `Cc1cc(=O)[nH]c(C)c1N1CN(c2ccc(F)cc2C(C)C)c2cc(C(F)(F)F)ccc2C1=O` [Example 62, 3-(2,4-dimethyl-6-oxo-1,6-dihydropyridin-3-yl)-1-(4-fluoro-2-isopropylphenyl)-7-(trifluoromethyl)-2,3-dihydroquinazolin-4(1H)-one], the IC50 was 0.794 to 7.94 µM. Same read-out and setting: next, `Cc1[nH]c(=O)ccc1N1CN([C@H]2CCCC[C@H]2C)c2cc(C(F)(F)F)ccc2C1=O` [Example 160, 3-(2-methyl-6-oxo-1,6-dihydropyridin-3-yl)-1-((1S,2R)-2-methylcyclohexyl)-7-(trifluoromethyl)-2,3-dihydroquinazolin-4(1H)-one]: at most 0.1 µM; `Cc1[nH]c(=O)ccc1N1CN(c2ccc(F)cc2)c2cc(C(F)(F)F)ccc2C1=O` [Example 147, 1-(4-fluorophenyl)-3-(2-methyl-6-oxo-1,6-dihydropyridin-3-yl)-7-(trifluoromethyl)-2,3-dihydroquinazolin-4(1H)-one]: 0.126 to 0.631 µM; `Cc1[nH]c(=O)ccc1N1CN(c2ccc(F)cc2C(C)C)c2ccc(Cl)cc2C1=O` [Example 76, 6-chloro-1-(4-fluoro-2-isopropylphenyl)-3-(2-methyl-6-oxo-1,6-dihydropyridin-3-yl)-2,3-dihydroquinazolin-4(1H)-one]: at most 0.1 µM. In the case of `Cc1cc(F)ccc1N1CN(c2ccc(=O)[nH]c2C)C(=O)c2ccc(C#N)cc21` [Example 153, 1-(4-fluoro-2-methylphenyl)-3-(2-methyl-6-oxo-1,6-dihydropyridin-3-yl)-4-oxo-1,2,3,4-tetra-hydroquinazoline-7-carbonitrile], the IC50 is at most 0.1 µM. Take `Cc1cc(F)ccc1N1CN(c2ccc(=O)[nH]c2C)C(=O)c2cccc(C)c21` [Example 125, 1-(4-fluoro-2-methylphenyl)-8-methyl-3-(2-methyl-6-oxo-1,6-dihydropyridin-3-yl)-2,3-dihydroquinazolin-4(1H)-one]: the IC50 was 0.794 to 7.94 µM. On the same count and under the same terms, next, `Cc1cc(F)cc(F)c1N1CN(c2ccc(=O)[nH]c2C)C(=O)c2cc(C(F)(F)F)ccc21` [Example 121, 1-(2,4-difluoro-6-methylphenyl)-3-(2-methyl-6-oxo-1,6-dihydropyridin-3-yl)-6-(trifluoromethyl)-2,3-dihydroquinazolin-4(1H)-one]: 0.126 to 0.631 µM. Still for that read-out and setting: next, `Cc1ncsc1N1CN(c2ccc(=O)[nH]c2C)C(=O)c2cc(C(F)(F)F)ccc21` [Example 224, 3-(2-methyl-6-oxo-1,6-dihydropyridin-3-yl)-1-(4-methylthiazol-5-yl)-6-(trifluoromethyl)-2,3-dihydroquinazolin-4(1H)-one]: 0.794 to 7.94 µM; `Cc1[nH]c(=O)ccc1N1CN(c2ccc(F)cc2C(C)C)c2cc(C#N)ccc2C1=O` [Example 161, 1-(4-fluoro-2-isopropylphenyl)-3-(2-methyl-6-oxo-1,6-dihydropyridin-3-yl)-4-oxo-1,2,3,4-tetra-hydroquinazoline-7-carbonitrile]: at most 0.1 µM; `Cc1[nH]c(=O)ccc1N1CN(c2ccc(F)cc2C(C)C)c2cc(C(F)F)ccc2C1=O` [Example 137, 7-(difluoromethyl)-1-(4-fluoro-2-isopropylphenyl)-3-(2-methyl-6-oxo-1,6-dihydropyridin-3-yl)-2,3-dihydroquinazolin-4(1H)-one]: at most 0.1 µM. Same read-out and setting: next, `Cc1cc(F)ccc1N1CN(c2ccc(=O)[nH]c2C)C(=O)c2ccc(Cl)cc21` [Example 66, 7-chloro-1-(4-fluoro-2-methylphenyl)-3-(2-methyl-6-oxo-1,6-dihydropyridin-3-yl)-2,3-dihydroquinazolin-4(1H)-one]: at most 0.1 µM.
